From patent US11800866B2, “Methods for control of pests” (Bio-Gene Technology Limited, priority 2018, dated 2023)
In brackets after ≈: the same amount, converted by molar mass. Where two headings read alike, the source gives them in different places.

Assays:
Assay type in all cases: in vivo
[1] = test system: green peach aphid (Myzus persicae); assay: leaf dip assay on Chinese cabbage leaves, green peach aphid
Description: The efficacy of flavesone against green peach aphid (Myzus persicae) was tested in a similar leaf dip assay as set out in Example 1, but used Chinese cabbage leaves, and 10 to 100,000 mg/L flavesone concentrations. The green peach aphids used were cultured in the laboratory from field collected insects.

[2] = test system: Russian Wheat Aphid (Diuraphis noxia); assay: leaf dip method on wheat leaf segments, Russian Wheat Aphid; conditions: for LC50: concentration giving 50% mortality, 95% CIs
Description: The efficacy of flavesone against Russian Wheat Aphid (Diuraphis noxia) was assessed using the leaf dip method described in Moores et al 1994 (Pesticide Biochemistry and Physiology, 49, 114-120), adapted for use with cereal aphids by using wheat leaf segments.
Serially diluted concentrations of flavesone (1 to 30000 mg/L) were tested at rates designed to include the expected field rate in cereals (Table 1), along with a control of water. Leaf segments (25 mm) cut from wheat (Triticum aestivum) plants were submerged for 1 second in the insecticide solutions or water (control), and placed adaxial side up on 10 g/L agar in 35 mm petri dishes. Once leaves were air-dry, eight 3-4 day old D. noxia nymphs were transferred to insecticide-dipped leaf segments using a fine-haired paintbrush. The population used was originally collected from Dingee (VIC) and maintained in the laboratory under a 18:6 LD cycle at 12-20° C. since June 2016.
The petri dishes were then inverted onto a lid containing a 25 mm diameter filter paper to control humidity, and were placed at 18° C.±2° C. with a photoperiod of 16:8 LD cycle. Six replicates were used for each concentration tested, and responses were assessed after 48 and 96 hours. Aphids were scored as alive (vibrant and moving freely), dead (not moving over a 5 second period), or incapacitated (inhibited movement).
Dose-response curves were generated by plotting percentage mortality against log concentration. Mortality data was analysed using a logistic regression model with random effects. Logistic regression is suited for the analysis of binary response data (i.e. dead/alive) with the random effect component of the model controlling for the non-independence of mortality scores within replicates. […] Analyses were conducted using R version 3.3.1 (R Development Core Team 2018, R: A language and environment for statistical computing. R Foundation for Statistical Computing, Vienna, Austria. http//www.R-project.org).

[3] = test system: cotton aphid (Aphis gossypii); assay: field trial, control of cotton aphid in cotton
Description: A field trial was conducted on a small plot of cotton in March 2018 to evaluate flavesone for the control of cotton aphid in cotton. The trial was conducted near Burren Junction in the Lower Namoi Valley Region of New South Wales, Australia. The trial was conducted in a crop grown as per standard commercial practice. It was precision planted on hills in rows 1 m apart and furrow flood irrigated. The crop was fully irrigated being watered as required over the duration of the season. The crop matured to produce good yield, typical of the region for the season. Light rainfall occurred at 6 and 7 days after treatment (DAT). The maximum temperature ranged from 28 to 38° C. and minimum temperature ranged from 14 to 23° C.
The plot was 4 m×8 m and four replicates were used. The plot was infested with cotton aphid at a moderate to high level with 36% of leaves infested pre-spray. The population on the untreated cotton increased over the duration of the trial with 83% leaves infested at 7 DAT.
The crop was either left untreated (control), treated with flavesone (Flavocide 500 EW) at varying concentrations or treated with Pirimor® (pirimicarb, positive control) as set out in Table 3:
The test solution was applied by broadcast method using a hand held boom sprayer with nozzles (Spraying Systems TT110015 flat fans) spaced 50 cm apart, with pressure being 250 kPa. Application speed was 1.5 m/s and the application volume was 105 L/ha.
The effectiveness of the application was evaluated on day 0 and 3 and 7 DAT. 20 leaves in the upper canopy of the plants in each plot were inspected and the number of aphids on each leaf recorded. The percentage of leaves infested and the mean number of aphids per leaf was then determined.
Statistical analyses were conducted using GenStat 64-bit Release 17.1 (PC/Windows Server 2008, VSN International Ltd). The model includes all treatment effects. Analysis of variance and least significant difference (LSD) procedures were used. Further means of separation was achieved by transforming the data using Square Root (x+0.5) or Log Base 10.

Compound: CC(C)C(=O)C1C(=O)C(C)(C)C(=O)C(C)(C)C1=O [Flavesone, 1-isobutyroyl-3,3,5,5-tetramethylcyclohexan-2,4,6-trione]
- toxicity to green peach aphid ([1]; 10 to 100,000 mg/L): toxic to green peach aphid
- concentration at which mortality responses began to increase ([1]; 48 hours): 1000 mg/L
- concentration at which mortality increased ([1]; 96 hours): 1000 mg/L
- mortality at 10000 µg/mL ([1]; Myzus persicae, foliar, 10,000 mg/L, 96 hours): 100%
- mortality at 30000 µg/mL ([1]; Myzus persicae, foliar, 30,000 mg/L, 48 hours exposure): 100%
- toxicity to D. noxia ([2]; 1-30,000 mg a.i./L): toxic to D. noxia
- LC50 ([2]; Diuraphis noxia, foliar, exposure time not given, read-out: LC50): 405 µg/mL (≈ 1610 µM)
- mortality at 3000 µg/mL ([2]; Diuraphis noxia, foliar, 3,000 mg a.i./L, largest increase, read-out: increase of mortality between 48 and 96 hours): 58%
- mortality at 30000 µg/mL ([2]; Diuraphis noxia, foliar, 30,000 mg a.i./L, 48 hours exposure): 100%
- LC50 ([2]; exposure time not given): 405.4 mg a.i./L
- LC90 ([2]; concentration giving 90% mortality, exposure time not given): 1.5 × 10^4 mg a.i./L
- LC99 ([2]; concentration giving 99% mortality, exposure time not given): 8.1 × 10^5 mg a.i./L
- concentration at which mortality began to increase ([2]; in vivo): 300 mg a.i./L
- Mean Number of Cotton Aphid per leaf ([3]; 0.1% v/v, 0 DAT (pre-spray)): 1.5 ab
- Mean Percentage of Leaves infested with cotton Aphid ([3]; 0.1% v/v, 0 DAT (pre-spray)): 34%
- Mean Number of Cotton Aphid per leaf ([3]; 0.1% v/v, 3 DAT): 1.1 ab
- Mean Percentage of Leaves infested with cotton Aphid ([3]; 0.1% v/v, 3 DAT): 15%
- Mean Number of Cotton Aphid per leaf ([3]; 0.1% v/v, 7 DAT): 2.5 bc
- Mean Percentage of Leaves infested with cotton Aphid ([3]; 0.1% v/v, 7 DAT): 43 c %
- Mean Number of Cotton Aphid per leaf ([3]; 0.25% v/v, 0 DAT (pre-spray)): 2.6 b
- Mean Percentage of Leaves infested with cotton Aphid ([3]; 0.25% v/v, 0 DAT (pre-spray)): 43%
- Mean Number of Cotton Aphid per leaf ([3]; 0.25% v/v, 3 DAT): 2.1 ab
- Mean Percentage of Leaves infested with cotton Aphid ([3]; 0.25% v/v, 3 DAT): 39%
- Mean Number of Cotton Aphid per leaf ([3]; 0.25% v/v, 7 DAT): 3.1 c
- Mean Percentage of Leaves infested with cotton Aphid ([3]; 0.25% v/v, 7 DAT): 38 bc %
- Mean Number of Cotton Aphid per leaf ([3]; 0.50% v/v, 0 DAT (pre-spray)): 1.1 . . . ab
- Mean Percentage of Leaves infested with cotton Aphid ([3]; 0.50% v/v, 0 DAT (pre-spray)): 30%
- Mean Number of Cotton Aphid per leaf ([3]; 0.50% v/v, 3 DAT): 1.0 ab
- Mean Percentage of Leaves infested with cotton Aphid ([3]; 0.50% v/v, 3 DAT): 19%
- Mean Number of Cotton Aphid per leaf ([3]; 0.50% v/v, 7 DAT): 2.4 bc
- Mean Percentage of Leaves infested with cotton Aphid ([3]; 0.50% v/v, 7 DAT): 40 c %
- Mean Number of Cotton Aphid per leaf ([3]; 0.75% v/v, 0 DAT (pre-spray)): 1.4 ab
- Mean Percentage of Leaves infested with cotton Aphid ([3]; 0.75% v/v, 0 DAT (pre-spray)): 33%
- Mean Number of Cotton Aphid per leaf ([3]; 0.75% v/v, 3 DAT): 3.4 b
- Mean Percentage of Leaves infested with cotton Aphid ([3]; 0.75% v/v, 3 DAT): 34%
- Mean Number of Cotton Aphid per leaf ([3]; 0.75% v/v, 7 DAT): 2.7 bc
- Mean Percentage of Leaves infested with cotton Aphid ([3]; 0.75% v/v, 7 DAT): 50 c %
- Mean Number of Cotton Aphid per leaf ([3]; 1.00% v/v, 0 DAT (pre-spray)): 0.6 a
- Mean Percentage of Leaves infested with cotton Aphid ([3]; 1.00% v/v, 0 DAT (pre-spray)): 26%
- Mean Number of Cotton Aphid per leaf ([3]; 1.00% v/v, 3 DAT): 0.2 a
- Mean Percentage of Leaves infested with cotton Aphid ([3]; 1.00% v/v, 3 DAT): 9%
- Mean Number of Cotton Aphid per leaf ([3]; 1.00% v/v, 7 DAT): 1.0 ab
- Mean Percentage of Leaves infested with cotton Aphid ([3]; 1.00% v/v, 7 DAT): 19 b %
- control of cotton aphid ([3]; highest 1% v/v rate): slightly better control
